# From patent US7977313B2, “Methods and compositions for promoting localization of pharmaceutically active agents to bone” (Affinergy, Inc., priority 2007, dated 2011)
# Like-named read-outs stand apart in the source and are kept apart here. Where a SMILES comes first, the peptide text is derived from it. Where no end group is shown, it is not given here. [ ]: non-standard residue; d: D form. The star is where a group is joined. Biotin = O=C1N[C@H]2[C@H](CS[C@H]2CCCCC(=O)*)N1; PEG10 = NCCOCCOCCOCCOCCOCCOCCOCCOCCOCCOCCC(=O)O
# How the values were obtained:
# [1] = target: cancellous bone (CNB); assay: Biotinylated peptide binding to cancellous bone
# Method: (§1) Relative binding strengths of the peptides to bone, also used as a measure of binding specificity, were determined by testing serial dilutions of the peptide for binding to bone, as represented by DBM. Plotting the absorbance observed across the concentration range for each peptide sequence yielded a binding curve of the peptides to its target substrate from which can be determined an EC50. The goal of the screenings and selections was to identify one or more peptides that bind to the selected substrate with binding specificity, with an EC50 of less than or equal to about 10 μM, and for some embodiments, in the nanomolar range (<1 μM). […] As a specific example, DBM was placed in a microtiter plate at a concentration of 3 mg equivalents per well, and then the wells were blocked with buffer containing 1% BSA for 1 hour at room temperature. The buffer containing 1% BSA was then aspirated from each well, and added to the wells were the serial dilutions of biotinylated peptide. The microtiter plates were incubated for 1 hour at room temperature on a plate shaker. The DBM was then allowed to settle, and the buffer was then aspirated from the wells. The DBM was washed three times with buffer-T, and then streptavidin-alkaline phosphatase was added. The microtiter plates were incubated for 1 hour at room temperature on a plate shaker. The DBM was then allowed to settle, and the buffer was then aspirated from the wells. The DBM was washed three times with buffer-T, pNPP (p-nitrophenyl phosphate) was used to develop the assay, and the absorbance was recorded at 405 nm. An estimate of the relative affinity (binding specificity, EC50) of a peptide for bone can be made by determining the concentration of peptide that gives one-half the maximal signal in the assay. Using the methodology illustrated in Example 1, the peptides illustrated in Table 3 were also tested for relative binding strength to demineralized cortical bone, and to cancellous bone, additional evidence of binding specificity for bone.
# [2] = target: demineralized bone matrix (DBM); assay: Biotinylated peptide binding to demineralized bone matrix (ELISA-type, streptavidin-alkaline phosphatase/pNPP); parameters: species or system human
# Method: Relative binding strengths of the peptides to bone, also used as a measure of binding specificity, were determined by testing serial dilutions of the peptide for binding to bone, as represented by DBM. Plotting the absorbance observed across the concentration range for each peptide sequence yielded a binding curve of the peptides to its target substrate from which can be determined an EC50. The goal of the screenings and selections was to identify one or more peptides that bind to the selected substrate with binding specificity, with an EC50 of less than or equal to about 10 μM, and for some embodiments, in the nanomolar range (<1 μM).
# As a specific example, DBM was placed in a microtiter plate at a concentration of 3 mg equivalents per well, and then the wells were blocked with buffer containing 1% BSA for 1 hour at room temperature. The buffer containing 1% BSA was then aspirated from each well, and added to the wells were the serial dilutions of biotinylated peptide. The microtiter plates were incubated for 1 hour at room temperature on a plate shaker. The DBM was then allowed to settle, and the buffer was then aspirated from the wells. The DBM was washed three times with buffer-T, and then streptavidin-alkaline phosphatase was added. The microtiter plates were incubated for 1 hour at room temperature on a plate shaker. The DBM was then allowed to settle, and the buffer was then aspirated from the wells. The DBM was washed three times with buffer-T, pNPP (p-nitrophenyl phosphate) was used to develop the assay, and the absorbance was recorded at 405 nm. An estimate of the relative affinity (binding specificity, EC50) of a peptide for bone can be made by determining the concentration of peptide that gives one-half the maximal signal in the assay.
# Example 1 illustrates methods to determine the relative binding strengths of peptide to bone. […] A biotin molecule was linked to the C-terminal lysine. Also shown in Table 3 are the relative binding strengths expressed as EC50 (μM) to bone as represented by DBM of human origin. It is noted that the EC50 values were the same or substantially similar when DBM of rabbit origin was used.
# Relative binding strength embodiments of the compositions to bone, also used as a measure of binding specificity, were determined by testing serial dilutions of the composition for binding to bone, as described in Example 1 Section B. Plotting the absorbance observed across the concentration range for each composition yielded a binding curve and rough dissociation constant of the composition for bone. Similar to a peptide having binding specificity for bone from which the composition is made, one property of the composition embodiments is that they bind to bone with binding specificity as measured by an EC50 of less than or equal to about 10 μM, and for some embodiments, in the nanomolar range (<1 μM). Using the methods outlined in Example 1B herein, assayed were the relative binding strengths of […] illustrative composition embodiments which include the amino acid sequences shown in SEQ ID NOs: 137, 138, 139, 140, 141 & 142, see Table 7, and synthesized to include a C-terminal amino linker which was biotinylated to facilitate determination of the relative binding strengths to bone. Shown in Table 8 are the relative binding strengths of composition embodiments to bone, as represented by DBM, expressed as EC50 (in μM).
# [3] = target: demineralized cortical bone (DCB); assay: Biotinylated peptide binding to demineralized cortical bone
# Method: as §1
# [4] = DBM of human origin, biotinylated peptide, read-out: Binding specificity for bone (e.g., DBM) EC50
# [5] = demineralized bone matrix, read-out: EC50 (μM) for DBM
# [6] = bone as represented by DBM, biotinylated composition, read-out: Binding specificity for bone EC50 (compositions X1-J-X2)
Compound,EC50 [1] [µM],"EC50 [2, 4] [µM]","EC50 [2, 5] [µM]",EC50 [3] [µM],"EC50 [2, 6] [µM]"
CC[C@H](C)[C@H](NC(=O)[C@@H](N)CO)C(=O)N[C@@H](Cc1ccccc1)C(=O)N[C@@H](CO)C(=O)N[C@H](C(=O)N[C@@H](Cc1c[nH]c2ccccc12)C(=O)N[C@@H](CC(N)=O)C(=O)N1CCC[C@H]1C(=O)N[C@@H](Cc1c[nH]c2ccccc12)C(=O)N[C@@H](CO)C(=O)N1CCC[C@H]1C(=O)N[C@@H](Cc1ccc(O)cc1)C(=O)N[C@@H](CO)C(=O)N[C@H](C(=O)N[C@@H](CO)C(=O)N[C@@H](CCCNC(=N)N)C(=O)NCC(=O)N[C@@H](CO)C(=O)N[C@@H](CO)C(=O)NCC(=O)N[C@@H](CCCCNC(=O)CCCC[C@@H]1SC[C@@H]2NC(=O)N[C@@H]21)C(=O)O)C(C)C)[C@@H](C)O [compound 40] (H-SIFSTWNPWSPYSVSRGSSGK(Biotin)-OH),< 1,< 1,< 1,< 1,–
CC(C)C[C@H](NC(=O)[C@@H](N)CO)C(=O)NCC(=O)N[C@H](C(=O)N[C@@H](Cc1ccccc1)C(=O)N[C@@H](Cc1c[nH]c2ccccc12)C(=O)N[C@@H](CO)C(=O)N[C@@H](CO)C(=O)N[C@H](C(=O)N[C@@H](Cc1c[nH]c2ccccc12)C(=O)N[C@@H](CCCNC(=N)N)C(=O)NCC(=O)N[C@H](C(=O)N[C@@H](CC(=O)O)C(=O)N[C@@H](C)C(=O)NCC(=O)NCC(=O)N[C@@H](CCC(=O)O)C(=O)N[C@@H](CO)C(=O)N[C@@H](CCCNC(=N)N)C(=O)NCC(=O)N[C@@H](CO)C(=O)N[C@@H](CO)C(=O)NCC(=O)N[C@@H](CCCCNC(=O)CCCC[C@@H]1SC[C@@H]2NC(=O)N[C@@H]21)C(=O)O)C(C)C)C(C)C)[C@@H](C)O [compound 43] (H-SLGTFWSSVWRGVDAGGESRGSSGK(Biotin)-OH),≤ 1,< 1,< 1,< 1,–
SWWGFWNGSAAPVWSRGSSGAGALGFPLKGEVVEGWAGSSGK(Biotin) [compound 139],–,–,–,–,< 0.5
CC[C@H](C)[C@H](NC(=O)[C@H](CC(=O)O)NC(=O)[C@H](Cc1ccccc1)NC(=O)[C@@H](N)CO)C(=O)N[C@@H](CC(=O)O)C(=O)N[C@@H](Cc1c[nH]c2ccccc12)C(=O)N[C@@H](CO)C(=O)NCC(=O)N[C@@H](CCSC)C(=O)N[C@@H](CCCNC(=N)N)C(=O)N[C@@H](CO)C(=O)N[C@@H](Cc1c[nH]c2ccccc12)C(=O)N[C@@H](Cc1c[nH]c2ccccc12)C(=O)NCC(=O)N[C@@H](CO)C(=O)N[C@@H](CCCNC(=N)N)C(=O)NCC(=O)N[C@@H](CO)C(=O)N[C@@H](CO)C(=O)NCC(=O)N[C@@H](CCCCNC(=O)CCCC[C@@H]1SC[C@@H]2NC(=O)N[C@@H]21)C(=O)O [compound 44] (H-SFDIDWSGMRSWWGSRGSSGK(Biotin)-OH),< 1,< 1,< 1,< 1,–
CC(C)C[C@H](NC(=O)[C@H](CO)NC(=O)[C@H](CO)NC(=O)[C@H](Cc1ccccc1)NC(=O)[C@H](C)NC(=O)[C@H](CCC(=O)O)NC(=O)[C@H](Cc1c[nH]c2ccccc12)NC(=O)[C@H](C)NC(=O)CNC(=O)[C@H](C)NC(=O)CNC(=O)[C@H](CO)NC(=O)[C@H](CO)NC(=O)CNC(=O)[C@H](CCCNC(=N)N)NC(=O)[C@H](CO)NC(=O)[C@H](Cc1c[nH]c2ccccc12)NC(=O)[C@@H](NC(=O)[C@@H]1CCCN1C(=O)[C@H](C)NC(=O)[C@H](C)NC(=O)[C@H](CO)NC(=O)CNC(=O)[C@H](CC(N)=O)NC(=O)[C@H](Cc1c[nH]c2ccccc12)NC(=O)[C@H](Cc1ccccc1)NC(=O)CNC(=O)[C@H](Cc1c[nH]c2ccccc12)NC(=O)[C@H](Cc1c[nH]c2ccccc12)NC(=O)[C@@H](N)CO)C(C)C)C(=O)N[C@@H](CO)C(=O)NCC(=O)N[C@@H](CO)C(=O)N[C@@H](CCCNC(=N)N)C(=O)N[C@H](C(=O)NCC(=O)N[C@@H](CO)C(=O)N[C@@H](CO)C(=O)NCC(=O)N[C@@H](CCCCNC(=O)CCCC[C@@H]1SC[C@@H]2NC(=O)N[C@@H]21)C(=O)O)C(C)C [compound 138] (H-SWWGFWNGSAAPVWSRGSSGAGAWEAFSSLSGSRVGSSGK(Biotin)-OH; N-terminus and C-terminus assumed),–,–,–,–,< 0.1
SFGSWWWGSGAASSRGSSGGGALGFPLKGEVVEGWAGSSGK(Biotin) [compound 140],–,–,–,–,< 0.5
CC(C)C[C@H](NC(=O)[C@H](CO)NC(=O)[C@H](CO)NC(=O)[C@H](Cc1ccccc1)NC(=O)[C@H](C)NC(=O)[C@H](CCC(=O)O)NC(=O)[C@H](Cc1c[nH]c2ccccc12)NC(=O)[C@H](C)NC(=O)CNC(=O)CNC(=O)CNC(=O)CCOCCOCCOCCOCCOCCOCCOCCOCCOCCOCCNC(=O)CNC(=O)[C@H](CCCNC(=N)N)NC(=O)[C@H](CO)NC(=O)[C@H](CO)NC(=O)[C@H](C)NC(=O)[C@H](C)NC(=O)CNC(=O)[C@H](CO)NC(=O)CNC(=O)[C@H](Cc1c[nH]c2ccccc12)NC(=O)[C@H](Cc1c[nH]c2ccccc12)NC(=O)[C@H](Cc1c[nH]c2ccccc12)NC(=O)[C@H](CO)NC(=O)CNC(=O)[C@H](Cc1ccccc1)NC(=O)[C@@H](N)CO)C(=O)N[C@@H](CO)C(=O)NCC(=O)N[C@@H](CO)C(=O)N[C@@H](CCCNC(=N)N)C(=O)N[C@H](C(=O)NCC(=O)N[C@@H](CO)C(=O)N[C@@H](CO)C(=O)NCC(=O)N[C@@H](CCCCNC(=O)CCCC[C@@H]1SC[C@@H]2NC(=O)N[C@@H]21)C(N)=O)C(C)C [compound 141] (H-SFGSWWWGSGAASSRG[PEG10]GGGAWEAFSSLSGSRVGSSGK(Biotin)-NH2; N-terminus and C-terminus assumed),–,–,–,–,< 0.5
CC(C)C[C@H](NC(=O)[C@H](CO)NC(=O)[C@H](CO)NC(=O)[C@H](Cc1ccccc1)NC(=O)[C@H](C)NC(=O)[C@H](CCC(=O)O)NC(=O)[C@H](Cc1c[nH]c2ccccc12)NC(=O)[C@H](C)NC(=O)CNC(=O)[C@H](C)NC(=O)CCOCCOCCOCCOCCOCCOCCOCCOCCOCCOCCNC(=O)CNC(=O)[C@H](CCCNC(=N)N)NC(=O)[C@H](CO)NC(=O)[C@H](CO)NC(=O)[C@H](C)NC(=O)[C@H](C)NC(=O)CNC(=O)[C@H](CO)NC(=O)CNC(=O)[C@H](Cc1c[nH]c2ccccc12)NC(=O)[C@H](Cc1c[nH]c2ccccc12)NC(=O)[C@H](Cc1c[nH]c2ccccc12)NC(=O)[C@H](CO)NC(=O)CNC(=O)[C@H](Cc1ccccc1)NC(=O)[C@@H](N)CO)C(=O)N[C@@H](CO)C(=O)NCC(=O)N[C@@H](CO)C(=O)N[C@@H](CCCNC(=N)N)C(=O)N[C@H](C(=O)NCC(=O)N[C@@H](CO)C(=O)N[C@@H](CO)C(=O)NCC(=O)N[C@@H](CCCCNC(=O)CCCC[C@@H]1SC[C@@H]2NC(=O)N[C@@H]21)C(N)=O)C(C)C [compound 142] (H-SFGSWWWGSGAASSRG[PEG10]AGAWEAFSSLSGSRVGSSGK(Biotin)-NH2; N-terminus and C-terminus assumed),–,–,–,–,< 0.5
SWWGFWNGSAAPVWSRGSSESAGAWEAFSSLSGSRVGSSGK(Biotin) [compound 137],–,–,–,–,< 0.5
